Data as given in patent US10626144B2, “Peptide derivatives and uses thereof” (Nosopharm, priority 2014, dated 2020).
Square brackets hold non-standard residues; d marks the D form. Peptide text beside a SMILES is read from it. * marks the point of attachment. ξ: configuration not given here. Pro(cis-4-CF3) = O=C(O)[C@@H]1C[C@H](C(F)(F)F)CN1; Oic(3aξ,7aξ) = O=C(O)[C@@H]1CC2CCCCC2N1; Pro(4R-NH2) = N[C@H]1CN[C@H](C(=O)O)C1; ΔZArg = N=C(N)NCC/C=C(\N)C(=O)O; aThr = C[C@H](O)[C@H](N)C(=O)O; dOrn = NCCC[C@@H](N)C(=O)O; Pip = O=C(O)[C@@H]1CCCCN1; Orn = NCCC[C@H](N)C(=O)O; Dab = NCC[C@H](N)C(=O)O; NH(CH2)5NH2 = NCCCCCN*; NH(CH2)4NH2 = NCCCCN*; ξAze = O=C(O)C1CCN1; NHOH = ON*

How the values were obtained:
Assay in all cases: MIC, broth microdilution (CLSI), reference strain
Details in all cases: CAMHB
[1] = tested on: Acinetobacter baumannii ATCC 19606
[2] = tested on: Pseudomonas aeruginosa ATCC 27853
[3] = tested on: Escherichia coli ATCC 25922
[4] = tested on: Staphylococcus aureus ATCC 13709

| Structure (SMILES) | Ab: MIC Acinetobacter baumannii ATCC 19606 [1] | Pa: MIC Pseudomonas aeruginosa ATCC 27853 [2] | Ec: MIC Escherichia coli ATCC 25922 [3] | Sa: MIC Staphylococcus aureus ATCC 13709 [4] |
| --- | --- | --- | --- | --- |
| C[C@H](NC(=O)[C@H](CCN)NC(=O)[C@@H](N)CCCCN)C(=O)NCC(=O)N[C@H](CCCN)C(=O)N1CCC[C@H]1C(=O)N[C@@H](Cc1cnc[nH]1)C(=O)N[C@@H](CCCCN)C(=O)N/C(=C\CCNC(=N)N)C(=O)N[C@H](CCCCN)C(=O)NCCCCN [14.11] (H-K[Dab]AG[dOrn]PHK[ΔZArg][dK]-{NH(CH2)4NH2}) | − (>32 μg/mL) | − (>32 μg/mL) | − (>32 μg/mL) | ++ (≤8 μg/mL) |
| C[C@H](NC(=O)[C@H](CCN)NC(=O)[C@@H](N)CCCCN)C(=O)NCC(=O)N[C@H](CCCN)C(=O)N1CCC[C@H]1C(=O)N[C@@H](Cc1cnc[nH]1)C(=O)N[C@@H](CCCCN)C(=O)N/C(=C\CCNC(=N)N)C(=O)N[C@@H](CCCCN)C(N)=O [14.12] (H-K[Dab]AG[dOrn]PHK[ΔZArg]K-NH2) | − (>32 μg/mL) | − (>32 μg/mL) | + (≤32 μg/mL) | ++ (≤8 μg/mL) |
| C[C@H](NC(=O)[C@H](CCN)NC(=O)[C@@H](N)CCCCN)C(=O)NCC(=O)N[C@H](CCCN)C(=O)N1CCCC[C@H]1C(=O)N[C@@H](Cc1cnc[nH]1)C(=O)N[C@@H](CCCCN)C(=O)N/C(=C\CCNC(=N)N)C(=O)N[C@@H](CCCCN)C(=O)NCCCCN [14.13] (H-K[Dab]AG[dOrn][Pip]HK[ΔZArg]K-{NH(CH2)4NH2}) | − (>32 μg/mL) | − (>32 μg/mL) | + (≤32 μg/mL) | ++ (≤8 μg/mL) |
| C[C@H](NC(=O)[C@H](CCN)NC(=O)[C@@H](N)CCCCN)C(=O)NCC(=O)N[C@H](CCCN)C(=O)N1CCC[C@H]1C(=O)N[C@@H](Cc1cnc[nH]1)C(=O)N[C@@H](CCCCN)C(=O)N/C(=C\CCNC(=N)N)C(=O)N[C@@H](CCCCN)C(=O)NO [14.14] (H-K[Dab]AG[dOrn]PHK[ΔZArg]K-{NHOH}) | − (>32 μg/mL) | − (>32 μg/mL) | − (>32 μg/mL) | ++ (≤8 μg/mL) |
| C[C@H](NC(=O)[C@H](CCN)NC(=O)[C@@H](N)CCCCN)C(=O)NCC(=O)N[C@H](CCCN)C(=O)N1C[C@@H](C(F)(F)F)C[C@H]1C(=O)N[C@@H](Cc1cnc[nH]1)C(=O)N[C@@H](CCCCN)C(=O)N/C(=C\CCNC(=N)N)C(=O)N[C@@H](CCCCN)C(=O)NCCCCN [14.15] (H-K[Dab]AG[dOrn][Pro(cis-4-CF3)]HK[ΔZArg]K-{NH(CH2)4NH2}) | − (>32 μg/mL) | − (>32 μg/mL) | − (>32 μg/mL) | ++ (≤8 μg/mL) |
| C[C@H](NC(=O)[C@H](CCN)NC(=O)[C@@H](N)CCCN)C(=O)NCC(=O)N[C@H](CCCN)C(=O)N1CCC[C@H]1C(=O)N[C@@H](Cc1cnc[nH]1)C(=O)N[C@@H](CCCCN)C(=O)N/C(=C\CCNC(=N)N)C(=O)N[C@@H](CCCCN)C(=O)NCCCCN [14.16] (H-[Orn][Dab]AG[dOrn]PHK[ΔZArg]K-{NH(CH2)4NH2}) | − (>32 μg/mL) | − (>32 μg/mL) | − (>32 μg/mL) | ++ (≤8 μg/mL) |
| C[C@H](NC(=O)[C@H](CCN)NC(=O)[C@@H](N)CCCCN)C(=O)NCC(=O)N[C@H](CCCN)C(=O)N1C[C@H](N)C[C@H]1C(=O)N[C@@H](Cc1cnc[nH]1)C(=O)N[C@@H](CCCCN)C(=O)N/C(=C\CCNC(=N)N)C(=O)N[C@@H](CCCCN)C(=O)NCCCCN [14.17] (H-K[Dab]AG[dOrn][Pro(4R-NH2)]HK[ΔZArg]K-{NH(CH2)4NH2}) | − (>32 μg/mL) | − (>32 μg/mL) | − (>32 μg/mL) | ++ (≤8 μg/mL) |
| C[C@H](NC(=O)[C@H](CCN)NC(=O)[C@@H](N)CCCCN)C(=O)NCC(=O)N[C@H](CCCN)C(=O)N1CCC1C(=O)N[C@@H](Cc1cnc[nH]1)C(=O)N[C@@H](CCCCN)C(=O)N/C(=C\CCNC(=N)N)C(=O)N[C@@H](CCCCN)C(=O)NCCCCN (stereo partly drawn) [14.18] (H-K[Dab]AG[dOrn][ξAze]HK[ΔZArg]K-{NH(CH2)4NH2}) | − (>32 μg/mL) | − (>32 μg/mL) | − (>32 μg/mL) | ++ (≤8 μg/mL) |
| C[C@H](NC(=O)[C@H](CCN)NC(=O)[C@@H](N)CCCCN)C(=O)NCC(=O)N[C@H](CCCN)C(=O)N1C2CCCCC2C[C@H]1C(=O)N[C@@H](Cc1cnc[nH]1)C(=O)N[C@@H](CCCCN)C(=O)N/C(=C\CCNC(=N)N)C(=O)N[C@@H](CCCCN)C(=O)NCCCCN (stereo partly drawn) [14.19] (H-K[Dab]AG[dOrn][Oic(3aξ,7aξ)]HK[ΔZArg]K-{NH(CH2)4NH2}) | − (>32 μg/mL) | − (>32 μg/mL) | − (>32 μg/mL) | ++ (≤8 μg/mL) |
| C[C@H](NC(=O)[C@H](CCN)NC(=O)[C@@H](N)CCCCN)C(=O)NCC(=O)N[C@H](CCCN)C(=O)N1CCC[C@H]1C(=O)N[C@@H](Cc1cnc[nH]1)C(=O)N[C@@H](CCCCN)C(=O)N/C(=C\CCNC(=N)N)C(=O)NCCCCCN [14.20] (H-K[Dab]AG[dOrn]PHK[ΔZArg]-{NH(CH2)5NH2}) | − (>32 μg/mL) | − (>32 μg/mL) | − (>32 μg/mL) | + (≤32 μg/mL) |
| C[C@H](NC(=O)[C@H](CCN)NC(=O)[C@@H](N)CCCCN)C(=O)NCC(=O)N[C@H](CCCN)C(=O)N1CCC[C@H]1C(=O)N[C@@H](Cc1cnc[nH]1)C(=O)N[C@@H](CCCCN)C(=O)N/C(=C\CCNC(=N)N)C(=O)N[C@@H](CCCCN)C(=O)O [14.21] (H-K[Dab]AG[dOrn]PHK[ΔZArg]K-OH) | − (>32 μg/mL) | − (>32 μg/mL) | − (>32 μg/mL) | + (≤32 μg/mL) |
| C[C@H](NC(=O)[C@H](CCN)NC(=O)[C@H](N)CCCCN)C(=O)NCC(=O)N[C@H](CCCN)C(=O)N1CCC[C@H]1C(=O)N[C@@H](Cc1cnc[nH]1)C(=O)N[C@@H](CCCCN)C(=O)N/C(=C\CCNC(=N)N)C(=O)N[C@@H](CCCCN)C(=O)NCCCCN [14.22] (H-[dK][Dab]AG[dOrn]PHK[ΔZArg]K-{NH(CH2)4NH2}) | − (>32 μg/mL) | − (>32 μg/mL) | − (>32 μg/mL) | + (≤32 μg/mL) |
| C[C@H](NC(=O)/C(=C/CCNC(=N)N)NC(=O)[C@H](CCCCN)NC(=O)[C@H](Cc1cnc[nH]1)NC(=O)[C@@H]1CCCN1C(=O)[C@@H](CCCN)NC(=O)CNC(=O)[C@H](C)NC(=O)[C@H](CCN)NC(=O)[C@@H](N)CCCCN)C(=O)NCCCCN [14.23] (H-K[Dab]AG[dOrn]PHK[ΔZArg]A-{NH(CH2)4NH2}) | − (>32 μg/mL) | − (>32 μg/mL) | − (>32 μg/mL) | + (≤32 μg/mL) |
| C[C@H](NC(=O)[C@H](CCN)NC(=O)[C@@H](N)CCCCN)C(=O)NCC(=O)N[C@H](CCCN)C(=O)N1CCC[C@H]1C(=O)N[C@@H](Cc1cnc[nH]1)C(=O)N[C@@H](CCCCN)C(=O)N[C@H](CCCNC(=N)N)C(=O)N[C@@H](CCCCN)C(=O)NCCCCN [14.24] (H-K[Dab]AG[dOrn]PHK[dR]K-{NH(CH2)4NH2}) | − (>32 μg/mL) | − (>32 μg/mL) | − (>32 μg/mL) | + (≤32 μg/mL) |
| C[C@H](NC(=O)[C@H](CCN)NC(=O)[C@@H](N)CCN)C(=O)NCC(=O)N[C@H](CCCN)C(=O)N1CCC[C@H]1C(=O)N[C@@H](Cc1cnc[nH]1)C(=O)N[C@@H](CCCCN)C(=O)N/C(=C\CCNC(=N)N)C(=O)N[C@@H](CCCCN)C(=O)NCCCCN [14.25] (H-[Dab][Dab]AG[dOrn]PHK[ΔZArg]K-{NH(CH2)4NH2}) | − (>32 μg/mL) | − (>32 μg/mL) | − (>32 μg/mL) | + (≤32 μg/mL) |
| C[C@H](O)[C@H](NC(=O)[C@H](CCN)NC(=O)[C@@H](N)CCCCN)C(=O)NCC(=O)N[C@H](CCCN)C(=O)N1CCC[C@H]1C(=O)N[C@@H](Cc1cnc[nH]1)C(=O)N[C@@H](CCCCN)C(=O)N/C(=C\CCNC(=N)N)C(=O)N[C@@H](CCCCN)C(=O)NCCCCN [15.1] (H-K[Dab][aThr]G[dOrn]PHK[ΔZArg]K-{NH(CH2)4NH2}) | − (>32 μg/mL) | − (>32 μg/mL) | − (>32 μg/mL) | + (≤32 μg/mL) |
| C[C@@H](O)[C@H](NC(=O)[C@H](CCN)NC(=O)[C@@H](N)CCCCN)C(=O)NCC(=O)N[C@H](CCCN)C(=O)N1CCC[C@H]1C(=O)N[C@@H](Cc1cnc[nH]1)C(=O)N[C@@H](CCCCN)C(=O)N/C(=C\CCNC(=N)N)C(=O)N[C@@H](CCCCN)C(=O)NCCCCN [15.3] (H-K[Dab]TG[dOrn]PHK[ΔZArg]K-{NH(CH2)4NH2}) | − (>32 μg/mL) | − (>32 μg/mL) | − (>32 μg/mL) | ++ (≤8 μg/mL) |
| N=C(N)NCC/C=C(\NC(=O)[C@H](CCCCN)NC(=O)[C@H](Cc1cnc[nH]1)NC(=O)[C@@H]1CCCN1C(=O)[C@@H](CCCN)NC(=O)CNC(=O)[C@H](CO)NC(=O)[C@H](CCN)NC(=O)[C@@H](N)CCCCN)C(=O)N[C@@H](CCCCN)C(=O)NCCCCN [16.1] (H-K[Dab]SG[dOrn]PHK[ΔZArg]K-{NH(CH2)4NH2}) | − (>32 μg/mL) | − (>32 μg/mL) | − (>32 μg/mL) | ++ (≤8 μg/mL) |
